US20090214654A1, “TREATMENT OF ANEURYSM WITH APPLICATION OF CONNECTIVE TISSUE STABILIZATION AGENT IN COMBINATION WITH A DELIVERY VEHICLE” (priority 2008, published 2009)
Where two headings read alike, the source gives them in different places.

Key:
porcine carotid arteries = experiment: In vitro elastase digestion of treated carotid arteries; settings: treated 20 minutes; 0.6% (w/v) Glut, 0.15% (w/v) PGG, alone or as cocktail; elastase 24 hrs, 37°C
Description: Tissue resistance to elastase degradation after treatment with various reagents is studied. Specifically, porcine carotid arteries were treated with saline (control, for 20 minutes), Glutaraldehyde (Glut) (for 20 minutes), PGG (for 20 minutes), or a combination of the two (Glut+PGG for 20 minutes, or Glut for 10 minutes followed by a separate incubation with PGG for 10 minutes). Concentrations of the reagents used were 0.6% (w/v) for Glut, 0.15% (w/v) for PGG and 9 g/L for physiological saline.
The treated tissue was then exposed to an in vitro elastase digestion assay to subject the treated tissue to digestion for 24 hrs. All experiments were conducted at 37° C. Because the values shown are percentage of digestion, the lower the value, the better the reagent used preformed in resisting elastase degradation. […] It should be noted that the digestion model used in this experiment is a very accelerated and aggressive digestion model.

porcine aortic wall = experiment: Collagenase digestion of treated aortic wall; settings: type I collagenase 150 U/mL, 37°C, 24 hours
Description: Tissue resistance to collagenase degradation after treatment with various reagents is discussed. Specifically, samples of porcine aortic wall were either left untreated (fresh) or treated with Glut alone or Glut followed by tannic acid (TA). Glut treatment was performed with 0.6% (w/v) Glut for 1 day, and then 0.2% (w/v) Glut for 7 days at room temperature; Glut/TA treatment was performed with 0.6% (w/v) Glut for 1 day, and then 0.2% (w/v) Glut for 7 days at room temperature followed by 0.15% (w/v) TA for 4 days at 37° C. The treated samples were rinsed 3 times (1 hour each) in 100 mL water, and lyophilized to record dry weight. Samples with the amount of 15 to 25 mg dry weight were immersed in 1.2 mL of type I collagenase (150 U/mL) dissolved in 50 mM Tris buffer, 10 mM CaCl2, pH 7.4, and incubated at 37° C. with orbital shaking at 650 rpm for 24 hours. Following this exposure to collagenase, samples were centrifuged (10000 rpm, 10 minutes, 4° C.), individually rinsed three times in 1 mL water, lyophilized to obtain dry weight after collagenase, and the percent of digested tissue was calculated.

[1] = system: aneurysmal aortas of rats; experiment: CaCl2 abdominal aortic aneurysm progression model, PGG applied to aneurysmal aorta at day 28; format: in vivo, rat; settings: PGG group, 11 of 11
Description: Using the same perivascular CaCl2 aortic injury model described earlier, the ability of PGG to halt the progression of growing aneurysms was evaluated. By applying PGG to healthy abdominal aorta immediately before the CaCl2-based aneurysm induction, the previously mentioned in vivo experiment essentially evaluated the effect of PGG on aneurysm formation. However, in order to create a more clinically relevant scenario, PGG was also applied to abdominal aortas of rats which were aneurysmal to investigate PGG's ability to hinder or halt aneurysm progression. In order to do this, rat aortas were treated with calcium chloride, the animals were closed, and AAA was allowed to develop for 28 days. At this time point, the aneurysmal aortas were exposed by a second surgery, and PGG was applied perivascularly using gauze. As a control, saline was applied by the same means to the remaining aneurysmal aortas. AAA progression was followed for another 28 days in both groups. A progressive diameter increase, reaching a mean 47.1±11% increase at 56 days, was measured in the control group (n=11) and the results were illustrated in FIG. 13.

[2] = system: abdominal aortic aneurysms in rats; format: in vivo, rat; settings: for external aortic diameter: PGG group
Description: Pelivascular application of calcium chloride (CaCl2) to the infrarenal abdominal aorta of rodents is an accepted rat aneurysm model. It involves exposure of the abdominal aorta through a midline incision, using gauze to apply CaCl2 solution directly onto the aorta for 15 minutes, followed by surgical closure. Using this aneurysm model, we evaluated the effect of a single PGG application on development of abdominal aortic aneurysms in rats. For this study, we exposed the abdominal aorta in adult rats (n=12), measured the aorta diameter using digital photography and applied a 0.03% PGG solution in saline for 15 minutes using soaked gauze. After rinsing in saline, we induced aortic injury with the 15-minute application of 0.5 mol/L CaCl2 solution. Control rats (n=12) were treated with saline for 15 minutes, rinsed and then treated with 0.5 mol/L CaCl2 solution for 15 minutes. After 28 days, we re-exposed the abdominal aorta under general anesthesia, measured the external diameter, then euthanized the rats and collected the aorta for analysis. […] Along with aortic dilatation, perivascular application of CaCl2 induced major changes in vascular elastin content and integrity as shown by analysis of desmosine, an amino acid which is specific to elastin, as well as histology, all shown in FIG. 12.

fresh aorta = experiment: Resistance of treated fresh aorta to elastase digestion; settings: 0.3% TA or 0.15% PGG (equimolar); accelerated digestion
Description: Resistance to elastase digestion was tested using fresh, untreated aorta and aorta treated with 0.3% TA or 0.15% PGG (equimolar concentrations). […] The differences between digestive values in TA and PGG samples were not significant (p>0.05). This is an accelerated digestion study, where high concentrations of enzyme were used. Such high enzyme activities are not expected to occur in vivo.

[3] = system: pure elastin strips obtained from porcine aorta; experiment: Tannic acid binding to pure aortic elastin (Folin-Denis method); settings: incubation up to 24 hours
Description: In order to determine kinetics of tannin binding to elastin, pure elastin strips obtained from porcine aorta were incubated with tannic acid (TA) for up to 24 hours. The concentration of TA in solution was assayed with the Folin-Denis method. […] All data points between 0-6 hrs are statistically different with p<0.05. The bottom diagram of FIG. 6 is a representative schematic diagram of interactions between TA and elastin. The hydrophobic domains (2, black segments) are areas in the elastin molecule that are susceptible to elastase cleavage. TA and PGG molecules (4, round structures), with an affinity for these hydrophobic areas, likely bind to these regions within elastin molecules, and establish multiple hydrogen bonds (5, dashed lines) between their hydroxyl moieties and regions of neighboring elastin molecules, resulting in improved elastin stabilization. Desmosine crosslinks (3, X) within the hydrophilic regions (1) of elastin molecules.

[4] = system: pure elastin obtained from porcine aorta; experiment: Elastase digestion of TA-treated pure aortic elastin (mass loss, histology); format: biochemical
Description: To investigate the potential of tannins as elastin stabilizing reagents, pure elastin obtained from porcine aorta was treated with tannic acid (TA) and the resistance of the treated porcine aorta to elastase was tested. Porcine aorta was chosen because large quantities of fresh tissue were easily obtainable. […] Purified elastin from porcine aorta was obtained using sodium hydroxide treatment followed by collagenase digestion. The smooth muscle cells, collagen and ground matrix are absent from purified aortic elastin. […] Elastase completely digested pure elastin strips, while addition of a 0.3% TA pretreatment step increased stability towards enzymatic digestion by almost 50%, as evaluated by mass loss shown in the graph at the left of FIG. 7 (p<0.05, n=6). Gravimetric data were further confirmed by histology and shown in FIG. 7A-D. Since histological analysis of elastase-digested elastin control was not possible at 48 hours due to complete (˜100%) degradation, we exposed pure elastin to elastase for only 1.5 hours, an interval which yields about 50% digestion and mass loss.

SMILES: O=CCCCC=O [Glut, Glutaraldehyde]
- resistance of tissue to elastase degradation (percentage digestion) vs saline (porcine carotid arteries): slightly improved
- percentage of sample digested by collagenase (mass loss) (porcine aortic wall): over 20%

SMILES: O=C(OC[C@H]1O[C@@H](OC(=O)c2cc(O)c(O)c(O)c2)[C@H](OC(=O)c2cc(O)c(O)c(O)c2)[C@@H](OC(=O)c2cc(O)c(O)c(O)c2)[C@@H]1OC(=O)c1cc(O)c(O)c(O)c1)c1cc(O)c(O)c(O)c1 [PGG, penta-galloylglucose]
- aortas that maintained the same diameter or decreased at 56 days compared with 28 days [1]: 100%
- increase in aortic diameter after 28 days ([2]; 0.03% PGG in saline 15 minutes by soaked gauze before 0.5 mol/L CaCl2, day 28 vs day 0): 8±7%
- loss of desmosine (elastin content) vs non-surgery control aorta ([2]; 28 days after injury): less than 15%
- external aortic diameter ([2]; 28 days): 1.676±0.097 mm
- external aortic diameter ([2]; day 0): 1.564±0.064 mm
- time for which in vivo binding of PGG to aortic tissue is relatively stable ([2]; rat, in vivo): ≥ 28 days
- PGG content of explanted aorta ([2]; rat, in vivo, 0 days): 1.8±0.6 μg PGG/mg dry tissue
- PGG content of explanted aorta ([2]; rat, in vivo, 28 days): 1.2±0.4 μg PGG/mg dry tissue

SMILES: O=C(OC[C@H]1O[C@@H](OC(=O)c2cc(O)c(O)c(OC(=O)c3cc(O)c(O)c(O)c3)c2)[C@H](OC(=O)c2cc(O)c(O)c(OC(=O)c3cc(O)c(O)c(O)c3)c2)[C@@H](OC(=O)c2cc(O)c(O)c(OC(=O)c3cc(O)c(O)c(O)c3)c2)[C@@H]1OC(=O)c1cc(O)c(O)c(OC(=O)c2cc(O)c(O)c(O)c2)c1)c1cc(O)c(O)c(OC(=O)c2cc(O)c(O)c(O)c2)c1 [TA, tannic acid]
- resistance of aorta to elastase (digestion values vs untreated fresh aorta) (fresh aorta): dramatically increased resistance
- TA binding kinetics normalized to dry weight of pure elastin strips [3]: rapid uptake
- increase in stability towards enzymatic digestion, evaluated by mass loss ([4]; 0.3% TA pretreatment, elastase, n=6): about 50%
- histology of aortic elastin structure after elastase treatment ([4]; TA-stabilized elastin, elastase for up to 48 hours): remarkably preserved
